Tests used:
human SCD5 = target: T1, human SCD5 (Homo sapiens, UniProt Q86SK9); assay: Growth of humanized yeast surviving solely on human SCD5; format: cell-based; conditions: for half-maximal inhibitory concentration (IC50), SCD5 humanized strain: growth inhibition
T1 construct: host or cells: S. cerevisiae ole1Δ strain (W303 pdr1Δ pdr3Δ background), plasmid pRS316 with TDH3 promoter and CYC1 terminator
T1 sequence (Q86SK9 1-330): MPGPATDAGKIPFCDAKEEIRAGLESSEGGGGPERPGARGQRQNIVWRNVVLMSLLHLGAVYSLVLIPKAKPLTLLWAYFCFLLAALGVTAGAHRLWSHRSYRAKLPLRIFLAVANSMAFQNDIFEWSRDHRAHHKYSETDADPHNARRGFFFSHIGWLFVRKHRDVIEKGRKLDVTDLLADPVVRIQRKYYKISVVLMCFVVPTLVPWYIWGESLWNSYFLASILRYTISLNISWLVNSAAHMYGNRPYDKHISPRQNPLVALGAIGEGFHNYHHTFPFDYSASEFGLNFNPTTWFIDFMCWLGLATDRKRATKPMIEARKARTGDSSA
From the text: (§1) To generate yeast strains expressing SCD1 or SCD5 as the sole desaturase, the human SCD1 and SCD5 genes were cloned from cDNAs (Harvard PlasmID database Clone ID HsCD00340237 for SCD1 and HsCD00342695 for SCD5) into yeast plasmid pRS316 (ATCC 77145) between the yeast TDH3 promoter and the CYC1 terminator. The coding sequence of yeast OLE1 was also cloned into this plasmid). These clones were then transformed into the ole1d strain and plated on CSM-Ura media (CSM lacking uracil) with 2% glucose (w/v) and independent colonies were isolated and amplified.
(§2) For experiments using a plasmid-borne copy of Ole1, SCD1, or SCD5 (FIGS. 3B, 6, and 7), media lacking uracil (SX-Ura, where X is glucose, raffinose, or galactose), was used for all steps of the compound profiling protocol to ensure its maintenance throughout the assay.
(§3) After yeast delivery, assay plates were incubated under humidified conditions at 30° C. for 24 to 40 h. ApoE4 rescue experiments were stopped at 24 h, aSyn experiments at 40 h, Ole1 at 24 h, and SCD1/SCD5 at 40 h. The growth of yeast was monitored by reading the OD600 of each well using a microplate reader (Perkin Elmer EnVision™). For model rescue experiments, raw data were processed by background subtracting and calculating a fold-change relative to DMSO control [(EXP-0.035)/(DMSO-0.035)—where 0.035 is the OD600 contributed by an empty well containing 30 μL of media alone]. For growth inhibition of wild-type cells, raw data were processed by background subtracting and converting values to a percent of the nontreated condition for that strain [(EXP-0.035)/(DMSO-0.035)×100%].

yeast OLE1 = target: T2, yeast OLE1 (Saccharomyces cerevisiae, UniProt P21147, L450T/T449L); assay: Growth of yeast surviving solely on yeast OLE1; format: cell-based; conditions: 24 h
T2 construct: expressed in transfected cells; host or cells: S. cerevisiae ole1Δ strain (W303 pdr1Δ pdr3Δ background), plasmid pRS316 with TDH3 promoter and CYC1 terminator
T2 sequence (P21147 whole entry T449L/L450T): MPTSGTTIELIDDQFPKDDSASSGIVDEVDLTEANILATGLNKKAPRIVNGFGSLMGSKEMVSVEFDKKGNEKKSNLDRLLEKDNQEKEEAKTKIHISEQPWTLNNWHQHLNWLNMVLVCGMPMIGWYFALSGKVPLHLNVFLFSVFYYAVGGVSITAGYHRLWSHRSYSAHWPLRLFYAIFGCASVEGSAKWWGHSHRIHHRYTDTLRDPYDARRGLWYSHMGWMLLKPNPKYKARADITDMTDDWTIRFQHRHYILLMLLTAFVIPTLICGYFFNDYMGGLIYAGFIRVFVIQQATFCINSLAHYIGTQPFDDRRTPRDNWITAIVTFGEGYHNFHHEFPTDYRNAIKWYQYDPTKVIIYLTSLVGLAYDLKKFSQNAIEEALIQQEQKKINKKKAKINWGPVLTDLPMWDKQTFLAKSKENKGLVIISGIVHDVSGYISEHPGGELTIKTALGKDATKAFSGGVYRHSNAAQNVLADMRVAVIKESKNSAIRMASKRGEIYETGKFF
From the text: as §1, §2, §3

human SCD1 = target: T3, human SCD1 (Homo sapiens, UniProt O00767); assay: Growth of humanized yeast surviving solely on human SCD1; format: cell-based; conditions: for half-maximal inhibitory concentration (IC50), SCD1 humanized strain: growth inhibition
T3 construct: host or cells: S. cerevisiae ole1Δ strain (W303 pdr1Δ pdr3Δ background), plasmid pRS316 with TDH3 promoter and CYC1 terminator
T3 sequence (O00767 1-359): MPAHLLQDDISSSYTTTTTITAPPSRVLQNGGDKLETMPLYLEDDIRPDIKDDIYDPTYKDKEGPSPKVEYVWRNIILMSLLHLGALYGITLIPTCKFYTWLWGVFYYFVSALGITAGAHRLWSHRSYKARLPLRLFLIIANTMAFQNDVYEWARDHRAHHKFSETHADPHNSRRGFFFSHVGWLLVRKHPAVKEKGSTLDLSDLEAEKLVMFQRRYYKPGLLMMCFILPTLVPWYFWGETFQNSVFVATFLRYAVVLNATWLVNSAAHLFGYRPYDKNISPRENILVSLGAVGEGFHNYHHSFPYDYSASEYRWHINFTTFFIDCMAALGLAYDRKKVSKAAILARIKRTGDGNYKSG
From the text: The coding sequence of yeast OLE1 was also cloned into this plasmid). These clones were then transformed into the ole1d strain and plated on CSM-Ura media (CSM lacking uracil) with 2% glucose (w/v) and independent colonies were isolated and amplified.
as §2
After yeast delivery, assay plates were incubated under humidified conditions at 30° C. for 24 to 40 h. ApoE4 rescue experiments were stopped at 24 h, aSyn experiments at 40 h, Ole1 at 24 h, and SCD1/SCD5 at 40 h. The growth of yeast was monitored by reading the OD600 of each well using a microplate reader (Perkin Elmer EnVision™).

[1] = tested on: cellular fatty acid desaturase activity (Ole1); assay: Quantitative lipid profiling of treated yeast cells by LC-MS/MS; format: cell-based, Saccharomyces cerevisiae
Procedure: FIGS. 8A-8D are graphs showing that treatment of yeast cells with the 1,2,4-oxadiazole Compound 2 inhibits lipid desaturation. Exponentially-growing wild-type yeast cells were treated with the indicated doses of the 1,2,4-oxadiazole Compound 2 for the indicated times before cellular lysis, lipid extraction, and analysis by global LC-MS/MS profiling. The relative abundance (fraction of total cellular lipid signal) after 1.5 h and 8 h of the most abundant saturated lipid, phosphatidylcholine 26:0, is depicted in FIGS. 8A and 8B, respectively. The relative abundance after 1.5 h and 8 h drug treatment of the most abundant lipid with 2 or more degrees of unsaturation, phosphatidylcholine 16:1; 18:1, is depicted in FIGS. 8C and 8D, respectively.
Overnight cultures of yeast strain W303 pdr1Δ pdr3Δ were diluted into CSM media with 2% (w/v) raffinose, OD600 0.25, and grown for 4 h before resuspending at an OD600 of 0.2 in CSM media with 2% (w/v) galactose and adding Compound 2 or DMSO at the indicated concentrations. Cells were grown for the indicated timepoints before centrifugation, washing once in PBS, and freezing pellets. Lipids were extracted from pellets by resuspending the pellets in 600 μL methanol, 300 μL water, and 400 μL chloroform, followed by cell lysis by vortexing with glass beads for 1 min. Samples were then centrifuged at 10,000×g for 10 min, and the bottom layer that formed (organic/lipids) was moved into a new tube and evaporated. Samples were then analyzed by LC/MS/MS using a Thermo Scientific Q Exactive™ Orbitrap™ coupled to a Dionex UltiMate® 3000 ultra-high performance liquid chromatography system, following the method described in Tafesse et al. PLoS Pathog. 11(10): e1005188, 2015.

ApoE4 = ApoE4 Alzheimer's disease yeast model, rescue of toxicity (OD600 growth); format: cell-based, Saccharomyces cerevisiae; conditions: 12-point dose; ApoE4 expression induced
From the text: Strain ApoE-mga2Δ was generated by amplifying 1000 base pairs (bp) upstream and downstream of the MGA2 ORF in a strain in which MGA2 was deleted using a G418 (GENETICIN®) resistance cassette (kanMX) (Piotrowski et al. Proc. Natl. Acad. Sci. USA 112(12):E1490-1497, 2015) and transforming the resulting deletion cassette into the ApoE4 strain in the BY4741 (ATCC 201388) genetic background. The ApoE strain is described, for example, in International Patent Application Publication No. WO 2016/040794, which is incorporated herein by reference in its entirety.
Yeast were cultured using standard techniques in complete synthetic media (CSM) and yeast nitrogen base supplemented with 2% (w/v) carbon source (glucose, raffinose, or galactose) to regulate the expression of the toxic disease protein. An initial starter culture was inoculated in 3 mL CSM-Glucose media and incubated overnight in a 30° C. shaker incubator (225 rpm). Saturated morning cultures were then diluted 1:20 in fresh CSM-Raffinose media and grown for 6 h to an OD600 (optical density) of 0.4-0.8 at 30° C. with shaking. […]
(§4) After yeast delivery, assay plates were incubated under humidified conditions at 30° C. for 24 to 40 h. […] The growth of yeast was monitored by reading the OD600 of each well using a microplate reader (Perkin Elmer EnVision™). […]

yeast = assay: Yeast growth inhibition in control / wild-type condition (OD600); format: cell-based, Saccharomyces cerevisiae; conditions: ApoE4 strain under non-inducing conditions (raffinose); at concentrations just above Emax of rescue
From the text: Strain GMYF was constructed from the ABC16/Green monster strain described in Suzuki et al. Nat. Methods 8(2):159-164, 2011. In this strain, YAP1 was deleted using a HIS3-MX6 cassette, and FLR1 was deleted using a NAT-MX6 cassette using standard methods. The knockout cassettes were PCR-amplified from plasmid templates (see, e.g., Bahler et al. Yeast 14(10):943-951, 1998; Longtine et al. Yeast 14(10):953-961, 1998) and transformed into yeast using lithium acetate-based transformation (Gietz et al. Methods Mol. Biol. 1205:1-12, 2014). The yap1::his3 deletion strain was selected on media lacking histidine and flr1::NAT on plates containing 100 μg/mL nourseothricin. All strains were confirmed by diagnostic PCR. Strain W303 pdr1Δ pdr3Δ was constructed from W303-1A (American Type Culture Collection (ATCC) 208352) by deleting PDR1 and PDR3 with kan-MX6 cassettes separately in MATa and MATa W303a isolates, mating, sporulating, and identifying the double deletion haploids by tetrad dissection and identification of non-parental ditype tetrads. Strain W-erg3 was derived from W303 pdr1 Δ pdr3Δ by deleting SNQ2 with NAT-MX6, YAP1 with HIS3-MX6, and ERG3 with BleMX. […]
as §4

SMILES: Cc1nnc(-c2ccc(N3CCC(Oc4ccccc4C(F)(F)F)CC3)nn2)s1 [MF-438]
- half-maximal inhibitory concentration (IC50), SCD5 humanized strain (human SCD5): low nanomolar
- growth of yeast strain expressing Ole1 (percent of DMSO-treated condition) (yeast OLE1): resistant
- half-maximal inhibitory concentration (IC50), SCD1 humanized strain (human SCD1): low nanomolar

SMILES: CNC(=O)c1cccc(NC(=O)N2CCC(Oc3ccccc3Cl)CC2)c1 [Compound A939572]
- half-maximal inhibitory concentration (IC50), SCD5 humanized strain (human SCD5): low nanomolar
- growth of yeast strain expressing Ole1 (percent of DMSO-treated condition) (yeast OLE1): resistant
- half-maximal inhibitory concentration (IC50), SCD1 humanized strain (human SCD1): low nanomolar

SMILES: O=C(O)Cn1nnc(-c2cc(N3CCC(Oc4cc(F)ccc4Br)CC3)no2)n1 [MK-8245]
- half-maximal inhibitory concentration (IC50), SCD5 humanized strain (human SCD5): low nanomolar
- growth of yeast strain expressing Ole1 (percent of DMSO-treated condition) (yeast OLE1): resistant

SMILES: C[C@@H]1C[C@@H]([C@H](O)CC2CC(=O)NC(=O)C2)C(=O)[C@@H](C)C1 [Cyclohexamide]
- growth of SCD5-expressing yeast (percent of DMSO-treated condition) (human SCD5; 40 h): inhibited growth of all three strains with the same potency
- growth of yeast strain expressing Ole1 (percent of DMSO-treated condition) (yeast OLE1): inhibited growth of all three strains with the same potency
- growth of SCD1-expressing yeast (percent of DMSO-treated condition) (human SCD1; 40 h): inhibited growth of all three strains with the same potency

SMILES: Cc1nn(C)c2cc(-c3noc(C4CCN(C(=O)CNC(=O)c5ccccc5)CC4)n3)ccc12 [Compound 2, N-(2-(4-(3-(1,3-dimethyl-1H-indazol-6-yl)-1,2,4-oxadiazol-5-yl)piperidin-1-yl)-2-oxoethyl)benzamide]
- lipid desaturation in yeast cells [1]: inhibited lipid desaturation
- decrease in abundance of unsaturated lipid phosphatidylcholine 16:1, 18:1 ([1]; 8 h treatment, wild-type yeast): > 12 fold
- increase in abundance of saturated lipid phosphatidylcholine 26:0 ([1]; after 8 h treatment, wild-type yeast): > 300 fold

SMILES: COc1ccc(-c2noc(C3CCN(C(=O)CNC(=O)c4ccccc4)CC3)n2)cc1OC [Compound 1, N-(2-(4-(3-(3,4-dimethoxyphenyl)-1,2,4-oxadiazol-5-yl)piperidin-1-yl)-2-oxoethyl)benzamide]
- rescue in ApoE4 model, dose-response curve (raw OD600) (ApoE4): bell-shaped dose-response curve
- growth in control condition (yeast): growth decreased

Reference: US10973810B2, “Methods for the treatment of neurological disorders” (Yumanity Therapeutics, Inc., priority 2017, dated 2021)
